# Data taken from patent US20240099998A1, “COMPOSITIONS AND METHODS FOR INDUCING DEFECATION” (priority 2021, published 2024).
# What was measured:
# [1] = tested on: anesthetized naïve (spinal intact) rats, rectal pressure; test: Rectal (colorectal) pressure recording via balloon catheter after intrarectal dosing in anesthetized spinal intact rats; type: in vivo, rat
# Procedure: General: In vivo studies were performed in anesthetized, spinally intact rats (N=10). Adult male Sprague Dawley rats (Charles River, 250-300 g) were housed at an AAALAC approved facility in cages (2-3/cage) with free access to water and food in a colony room that was maintained on a 12 hr light/12 hr dark cycle 1-2 weeks before the experiment. Rats were anesthetized with urethane (1.2-1.4 g/kg subcutaneous injection). Surgical procedures were then performed with the addition of isoflurane anesthesia (0.05-1.5% in O2) as the full anesthetic effect of urethane takes about 1-2 hrs.
# A catheter filled with heparinized saline (30 unit/ml) was inserted into the carotid artery and connected to a pressure transducer for measurement of blood pressure and heart rate. A catheter was inserted into the jugular vein for intravenous (i.v.) administration of drugs.
# Colorectal Contractility: Colorectal pressures were measured via a latex balloon catheter (length 2-3 cm) inserted (˜3-4 cm) into the distal colorectal region. The catheter was connected to a pressure monitoring system. The pressure in the balloon catheter was slowly increase to 10-15 mmHg by infusing saline (0.2-0.5 ml total volume) and this pressure was maintained throughout the study. This allowed drug induced changes in colorectal pressure to be monitored. Parameters measured include peak colorectal pressure response, duration of time above baseline activity (in the 1st 5 min after drug administration), area under the curve (measured during the 1st 5 min after drug administration) and the number of contractile events after vehicle and drug administration.
# Dosing: Intrarectal TRPV1 agonists were administered in a dose range of 0.01-2% wt/vol. Nonivamide, OEA, OLDA and capsaicin were dissolved in 95% ethanol at 20-100 mg/mL and then diluted to 0.01-2% with the vehicle (Tween-80:95% ethanol:saline in a ratio of 10:10:80) and administered intrarectally as a solution using a small gauge tube, or a solution soaked cotton wool plug, to mimic a suppository-like dosage form.
# Methods: The TRPV1 receptor agonist nonivamide was administered to anesthetized spinal intact male rats (N=6) instrumented for rectal pressure recording via a balloon catheter inserted into the rectum 3-4 cm from the anus. A 0.1% solution (0.2 mL of a 1 mg/ml solution in Tween-80:ethanol:saline (ratio 10:10:80)) of nonivamide was administered via a 20 gauge feeding tube that was inserted ˜2 cm into the rectum. For comparison, vehicle (Tween-80:ethanol:saline in a ratio of 10:10:80) was administered using the same techniques.
# Methods: The TRPV1 receptor agonist nonivamide was administered to anesthetized spinal intact male rats instrumented for rectal pressure recording via a balloon catheter inserted into the rectum 3-4 cm from the anus. A 1% solution (0.2 mL of a 10 mg/ml solution in Tween-80:ethanol:saline (ratio 10:10:80)) of nonivamide was administered via a 20 gauge feeding tube that was inserted 2-3 cm into the rectum.
# Methods: Nonivamide was administered to a naive anesthetized male rat instrumented for rectal pressure recording via a balloon catheter inserted into the rectum 2-4 cm from the anus. To mimic a suppository dosage form, nonivamide (1%) was administered via a fluid-soaked small cotton wool plug. The cotton wool plug was placed into the anal canal at the distal rectum.
# Methods: OAE (N=4) was administered to anesthetized naïve male rats (N=5) instrumented for rectal pressure recording via a balloon catheter inserted into the rectum 3-4 cm from the anus. OEA was administered as 0.01-0.2% solution (0.2 mL of a […] solution in Tween-80:95% ethanol:saline (ratio 10:10:80)) via a small cotton wool plug soaked in 0.2 mL of solution, to mimic a suppository dosage form, that was inserted into the rectum. For comparison, vehicle was administered to all rats using the same techniques. […]
# [2] = tested on: conscious spinal intact rats, defecation; test: Defecation in conscious rats monitored in metabolism cages after intrarectal dosing; type: in vivo, rat
# Procedure: Defecation in awake animals was monitored in metabolism cages. Animals were habituated to handling and the metabolism cages on 2-4 occasions prior to dosing and were then randomized to a treatment arm. Rats were weighed and placed into metabolism cages for 10 min prior to intrarectal administration of vehicle or TRPV1 agonist. The number of fecal pellets and timing of events were recorded by trained personnel that were blinded to treatment. Fecal weight was weighed at 20 min post dosing.
# Defecation in conscious rats was monitored in metabolism cages. Rats were habituated to handling and the metabolism cages on 2-4 occasions before dosing, then randomized to the treatment arm. Rats were weighed and placed into metabolism cages for 10 min prior to receiving an intrarectal dose of vehicle or capsaicin. Since manual stimulation during intrarectal dosing in conscious rats can induce defecation, palpation of the distal rectum was performed to remove any fecal pellets located in the region of the anal sphincter. […] Once the anal sphincter had ceased contracting/relaxing (15-90 s) a fine catheter (22 G soft/flexible blunt tip catheter) was used to dose the vehicle or capsaicin, as this method produced little manual stimulation. Capsaicin was prepared as a 0.01, 0.1 or 1% solution (0.1, 1 or 10 mg/ml in tween-80/ethanol/saline (ratio of 10/10/80) or vehicle. Dose volumes were 0.1 mL and administered via the catheter inserted ˜1 inch through the anus into the rectum. The number of fecal pellets and timing of events were recorded by trained personnel blinded to the treatment. Fecal weight was recorded at 20 min post dosing.
# [3] = tested on: rectal afferent terminals; conditions: human subjects; cited from earlier work
# [4] = tested on: conscious dogs, colon; conditions: intracolonic administration; cited from earlier work
# [5] = tested on: anesthetized acute T9-transected SCI rat, rectal pressure; test: Rectal pressure recording in anesthetized acute spinal cord injured (SCI) rat; type: in vivo; conditions: cotton ball suppository soaked in 50 uL of 0.2% solution, acute T9-transected SCI female rat
# Procedure: For the acute SCI model, animals were anesthetized with urethane (1.0-1.4 g/kg subcutaneous injection), the skin and muscle on the dorsal side at the level of the thoracic vertebrae were incised, and the spinal cord was carefully exposed by a laminectomy and transected at T8-T10 spinal level. Gelfoam^R was placed at the incision site and the muscle and skin overlying the vertebrae were closed with wound clips. The spinal cord was transected at least 60 min before starting the experimental protocol.
# For all rectal contractility studies, animals were anesthetized with urethane (1.0-1.4 g/kg subcutaneous injection). […]
# Rectal Contractility: Rectal pressures were measured via a latex balloon catheter (length 1.5-4 cm) inserted (˜4 cm) into the distal rectal region. […] Parameters measured included peak rectal pressure response, duration of time above baseline activity (in the 1st 5 min after drug administration), area under the curve (measured during the 1st 5 min after drug administration) and the number of contractile events after vehicle and drug administration.
# Methods: Capsaicin was administered to 2 anesthetized female rats instrumented for rectal pressure recording via a balloon catheter inserted into the rectum 2-4 cm from the anus. […] Top and bottom traces in FIG. 9 were recorded from individual female rats.
# [6] = 0.2% solution, 0.05-0.32 mL intrarectal
# [7] = cotton ball suppository soaked in 50 uL of 0.2% solution, spinal intact naïve female rat
# [8] = cotton wool plug (1% in FIG. 7A), intrarectal, N=3
# [9] = intrarectal solution, conscious rats
# [10] = 0.2%, cotton wool plug soaked in 0.2 mL, N=1
# [11] = cotton wool plug soaked in 0.2 mL of 0.2% solution
# [12] = 0.1% solution, 0.2 mL intrarectal
# [13] = 1% solution, 0.2 mL intrarectal
# [14] = 0.01-0.2% solution, cotton wool plug soaked in 0.2 mL, intrarectal
smiles,measurement,setting,value
COc1cc(CNC(=O)CCCC/C=C/C(C)C)ccc1O [Capsaicin],duration of rectal pressure increase,[1]; [6],5 min
same,onset time of rectal pressure increase,[1]; [6],1 to 2 min
same,rats with transient rectal pressure increase,"[1]; 0.2% solution, 0.05-0.32 mL intrarectal via PE50 tube, 4 males and 1 female",5 of 5
same,peak colorectal pressure,"[1]; 1% soaked cotton wool plug, FIG. 7A, example of one male rat",~40 mmHg
same,duration of rectal pressure increase,[1]; [7],< 5 min
same,onset of rectal pressure increase,[1]; [7],< 2 min
same,duration of increase in colorectal pressure,[1]; [8],< 5 min
same,onset of increase in colorectal pressure,[1]; [8],< 1 min
same,number of fecal pellets expelled compared to vehicle,"[2]; 1% solution, 0.1 mL intrarectal, 10 min after dosing, N=6, p<0.05",significantly increased
same,total weight of fecal pellets expelled compared to vehicle,"[2]; 1% solution, 0.1 mL intrarectal, 20 min after dosing, N=6, p<0.05",significantly increased
same,time to completion of defecation,[2]; [9],≤ 10 min
same,time to defecation,[2]; [9],≤ 5 min
same,reported sensations after intrarectal administration,[3],an urge to defecate
same,effect on colon and defecation,[4],initiate defecation
same,duration of rectal pressure increase,[5],< 5 min
same,onset of rectal pressure increase,[5],< 2 min
"CCCCCCCC/C=C\CCCCCCCC(=O)NCCc1ccc(O)c(O)c1 [OLDA, N-Oleoyldopamine]",duration of rectal pressure increase,[1]; [10],5 min
same,onset time of rectal pressure increase,[1]; [10],0.5 to 2 min
same,rectal response: expulsion of balloon catheter,[1]; [11],sufficient to expel the balloon catheter
CCCCCCCCC(=O)NCc1ccc(O)c(OC)c1 [Nonivamide],duration of rectal pressure increase,[1]; [12],5 min
same,onset time of rectal pressure increase,[1]; [12],1 to 2 min
same,rats with transient rectal pressure increase,"[1]; 0.1% solution, 0.2 mL intrarectal via feeding tube, male rats",6 of 6
same,duration of rectal pressure increase,[1]; [13],5 to 10 min
same,onset time of rectal pressure increase,[1]; [13],1 to 2 min
same,rectal response: expulsion of balloon catheter,[1]; cotton wool plug soaked in 0.2 mL of 1% solution,sufficient to expel the balloon catheter
same,onset of increase in rectal pressure,"[1]; cotton wool plug soaked in 0.2 mL of 1% solution, 1 male rat",≤ 1 min
"CCCCCCCC/C=C\CCCCCCCC(=O)NCCO [OEA, Oleoylethanolamide]",duration of rectal pressure increase,[1]; [14],5 to 10 min
same,onset time of rectal pressure increase,[1]; [14],0.5 to 2 min
same,defecation in anesthetized rat (FIG. 5),[1]; [11],defecation of fecal pellets
same,rectal response: expulsion of balloon catheter,[1]; [11],sufficient to expel the balloon catheter
